Here are results for 14 molecules from PubChem BioAssay (NCI).

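Results reflect a 48-hour exposure of cells in 96-well plates to compound at five concentrations. The concentration for 50% growth inhibition is given as GI50. TGI marks complete inhibition of growth.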

Common to all, as to assay: DTP human tumour cell line panel, 48 h
Assay [1] concerns CCRF-CEM leukemia.
Assay [2] concerns SF-268 CNS.
The test system of assay [3] is SF-295 CNS.
The subject of assay [4] is RXF 393 renal.
Assay [5] concerns U251 CNS.
Assay [6] deals with UO-31 renal.
For assay [7], the system named is OVCAR-3 ovarian.
Assay [8] concerns SK-MEL-28 melanoma.
For assay [9], the system named is NCI-H522 lung.

As for `NNC(=O)C(=O)N/N=C(\CCC(=O)Nc1ccc(Cl)cc1)Cc1nc2ccccc2s1`, the TGI was 77.1 µM in assay [1]; > 100 µM in [2]; > 100 µM in assay [3]; > 100 µM in assay [4]; > 100 µM in assay [5]; > 100 µM in assay [6]. Also, the TGI in assay [7] was > 100 µM; in assay [8], > 100 µM; in [9], 40.8 µM.

Regarding `O=C(/C=C\c1ccccc1)N1CCc2ccccc2C1`, the TGI is 91.3 µM in assay [1]; > 100 µM in assay [2]; > 100 µM in [3]; > 100 µM in assay [4]; > 100 µM in [5]; > 100 µM in assay [6]. In addition, in assay [8], the TGI was > 100 µM.

Turning to `CN(C)C(=O)Oc1c(-c2ccccc2)c(=O)n2c3ccccc3n3c(=O)n(C)c(=O)c1c23`, the TGI in assay [2], in assay [3], in assay [4], in assay [5], in assay [6] and in assay [7] was > 100 µM in each case. For the same molecule, the TGI in assay [8] was > 100 µM.

As to `C[C@]12CCC(=O)C=C1CC[C@@H]1C2CC[C@]2(C)c3nn(-c4ccccc4)nc3CC12` (stereo partly drawn), the TGI in assay [1], in assay [2], in [3], in assay [4], in [5] and in assay [6] was > 100 µM each time. For the same molecule, the total growth inhibition concentration (TGI) in assay [7] and in assay [8] was > 100 µM throughout.

For `O=NN(CCCl)C(=O)NC1CCC(CC2CCC(NC(=O)N(CCCl)N=O)CC2)CC1` (stereo not drawn), the TGI in assay [1] was 50.7 µM; in assay [2] it was > 52.4 µM; in assay [3] it was > 79.2 µM; in assay [4], 44.6 µM; in assay [5], 46.2 µM; in assay [6], 99.9 µM. In addition, the concentration for total growth inhibition (TGI) in assay [7] is > 67.4 µM; in assay [8], > 100 µM; in assay [9], 48.3 µM.

For the molecule `CCN(CC)CCNC(=O)c1cccc2nc3ccccc3nc12`, the TGI was 36.9 µM in [2]; > 38.1 µM in [3]; 28.2 µM in [4]; > 79.6 µM in assay [5]; > 71.7 µM in [6]; > 50 µM in assay [7]. Moreover, the TGI in assay [8] was 34.3 µM; in assay [9] it was > 100 µM.

Consider `N.N.O=P([O-])([O-])C1(P(=O)([O-])[O-])CCCCCN1.[Pt+2]`, for which the GI50 is > 100 µM in assay [1]; 76.6 µM in [2]; > 100 µM in assay [3]; 42.3 µM in assay [4]; 43.5 µM in assay [5]; > 100 µM in assay [6]. The GI50 in [7], in assay [8] and in assay [9] was > 100 µM each time. Also, the total growth inhibition concentration (TGI) in assay [1], in assay [2], in assay [3], in assay [4], in assay [5] and in assay [6] was > 100 µM in each case. In addition, the TGI in assay [7], in assay [8] and in assay [9] was > 100 µM throughout.

For `CC(=O)[O-].O=C([CH-]C(=O)c1ccccc1)c1ccccc1.O=C([CH-]C(=O)c1ccccc1)c1ccccc1.[Sm+3]`, the GI50 in assay [2] is 3.39 µM; in [3] it was 2.66 µM; in assay [5], 5.93 µM; in [6] it was 3.79 µM; in [7] it was 2.62 µM; in assay [8] it was 5.87 µM. For the same molecule, the GI50 in assay [9] is 1.43 µM. The TGI in assay [2] worked out at 24.5 µM; in [3], 17.2 µM; in assay [5], 35.3 µM; in [6] it was 12.5 µM; in [7] it was 13.3 µM; in assay [8], 37.8 µM. In addition, the TGI in [9] worked out at 7.49 µM.

On to `CC(C)=CC(=O)Cc1nc2ccc([N+](=O)[O-])cc2[nH]c1=O`, for which the TGI in [2], in assay [3], in [4], in [6], in assay [7] and in [8] was > 100 µM throughout. Further, in assay [9], the TGI is > 100 µM.

Consider `CC1(C)CC(N(C(=O)/C=C/c2ccc([N+](=O)[O-])o2)C2CCCCC2)CC(C)(C)N1`, for which the TGI in assay [1] is 13.3 µM; in assay [2] it was 20.5 µM; in assay [3], 26.4 µM; in assay [5], 18.1 µM; in [6] it was 24.5 µM; in assay [7], 25.2 µM. For the same molecule, the TGI amounted to 25.1 µM in [8] and 21.2 µM in assay [9].

For `CN(C)CC/C(=N\Nc1ccc(Cl)cc1Cl)c1ccccc1`, the TGI was found to be 31.2 µM in [1]; 32.9 µM in assay [3]; 20.6 µM in assay [4]; 24.8 µM in assay [5]; 10.5 µM in [6]; 27 µM in assay [7]. In [8], this molecule showed a TGI of 28.5 µM.

As to `O=C(CCC(=O)C1CCC/C1=N/O)Nc1ccc(Cl)cc1` (stereo not drawn), the TGI in [1], in assay [2], in [3], in assay [5], in assay [6] and in assay [7] was > 100 µM in each case. Besides, the concentration for total growth inhibition (TGI) in [8] and in assay [9] was > 100 µM each time.

In the case of `Cn1cccc1/C=C/c1cc(Br)c(/C=C/c2cccn2C)cc1Br`, the TGI in assay [1] was determined as 62.2 µM; in assay [2], 91.9 µM; in assay [3] it was 52.8 µM; in assay [4] it was 25.1 µM; in [5], 28.6 µM; in assay [6] it was 48 µM. For the same molecule, the TGI in assay [7] is 33.6 µM; in [8], 31.5 µM; in assay [9], 28.3 µM.

For `CCc1cccc(C)c1NC(=O)CC1C(=O)Nc2ccccc2S1(=O)=O` (stereo not drawn), the TGI in [1] amounted to 41.6 µM; in assay [2] it was 39.4 µM; in [3], 82.1 µM; in [4] it was 40.4 µM; in assay [5], 32.5 µM; in assay [6] it was 27.7 µM. Moreover, the TGI is 33.5 µM in [7], 48.1 µM in assay [8] and 32.5 µM in assay [9].

A word on the TGI: it is the concentration at which net growth stops. Higher therefore signals lower sensitivity of the cells. As usually defined, the GI50 is the concentration that inhibits growth by half.
